Results on 19 molecules are retold here after patent publication US20250059180A1 (DONG WHA PHARM. CO., LTD., priority 2022, published 2025).

Bounds are passed on as bounds.

The first assay deals with Pfeiffer cells, lymphoma cells having EZH2 mutation (A677G). Put plainly: Proliferation inhibition of cells of hematologic malignancies (CCK-8, 11 days). It is filed as cell-based. Particulars: 11 days culture, read-out: Cell proliferation inhibitory effect (IC50). The procedure, abridged:
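Pfeiffer lymphoma cells (EZH2 A677G) in RPMI1640 with 10% FBS were seeded at 10,000 cells/well and exposed to test material for 11 days, with compound replaced every 3–4 days. Viability was read by CCK-8 absorbance at 450 nm, and IC50 was derived by non-linear regression curve fitting.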
On to `CSc1cc(C)[nH]c(=O)c1CNC(=O)c1cc(-c2cnc(N3C[C@@H](C)O[C@@H](C)C3)nc2)c2c(c1C)OC(C)([C@H]1CC[C@H](N(C)CC(F)(F)F)CC1)O2` (stereo partly drawn) [Compound 23, 7-(2-((2S,6R)-2,6-dimethylmorpholino)pyrimidin-5-yl)-2,4-dimethyl-2-(trans-4-(methyl(2,2,2-trifluoroethyl)amino)cyclohexyl)-N-((6-methyl-4-(methylthio)-2-oxo-1,2-dihydropyridin-3-yl)methyl)benzo[d][1,3]dioxole-5-carboxamide], for which the IC50 was at most 10 nM.

The assay is the same for the next values; noted with them: Homo sapiens, Pfeiffer, 264 h, 11 days culture, read-out: Cell proliferation inhibitory effect (IC50).
Turning to `CSc1cc(C)[nH]c(=O)c1CNC(=O)c1cc(-c2ccc(N3CCSCC3)nc2)c2c(c1C)OC(C)([C@H]1CC[C@H](N(C)C)CC1)O2` (stereo partly drawn) [Compound 17, 2-(trans-4-(dimethylamino)cyclohexyl)-2,4-dimethyl-N-((6-methyl-4-(methylthio)-2-oxo-1,2-dihydropyridin-3-yl)methyl)-7-(6-thiomorpholinopyridin-3-yl)benzo[d][1,3]dioxole-5-carboxamide], the IC50 was at most 10 nM. In the case of `CSc1cc(C)[nH]c(=O)c1CNC(=O)c1cc(-c2ccoc2)c2c(c1C)OC(C)([C@H]1CC[C@H](N(C)C)CC1)O2` (stereo partly drawn) [Compound 18, 2-(trans-4-(dimethylamino)cyclohexyl)-7-(furan-3-yl)-2,4-dimethyl-N-((6-methyl-4-(methylthio)-2-oxo-1,2-dihydropyridin-3-yl)methyl)benzo[d][1,3]dioxole-5-carboxamide], the IC50 is at most 10 nM.

`CSc1cc(C)[nH]c(=O)c1CNC(=O)c1cc(-c2ccc(Cl)s2)c2c(c1C)OC(C)([C@H]1CC[C@H](N(C)C)CC1)O2` (stereo partly drawn) [Compound 19, 7-(5-chlorothiophen-2-yl)-2-(trans-4-(dimethylamino)cyclohexyl)-2,4-dimethyl-N-((6-methyl-4-(methylthio)-2-oxo-1,2-dihydropyridin-3-yl)methyl)benzo[d][1,3]dioxole-5-carboxamide]: the IC50 is at most 10 nM. Consider `CSc1cc(C)[nH]c(=O)c1CNC(=O)c1cc(-c2cnc(N3CCCCC3)nc2)c2c(c1C)OC(C)([C@H]1CC[C@H](N(C)CC(F)(F)F)CC1)O2` (stereo partly drawn) [Compound 21, 2,4-dimethyl-2-(trans-4-(methyl(2,2,2-trifluoroethyl)amino)cyclohexyl)-N-((6-methyl-4-(methylthio)-2-oxo-1,2-dihydropyridin-3-yl)methyl)-7-(2-(piperidin-1-yl)pyrimidin-5-yl)benzo[d][1,3]dioxole-5-carboxamide], for which the IC50 was at most 10 nM. Same read-out and setting: to `CSc1cc(C)[nH]c(=O)c1CNC(=O)c1cc(-c2cnc(N(C)C)nc2)c2c(c1C)OC(C)([C@H]1CC[C@H](N(C)CC(F)(F)F)CC1)O2` (stereo partly drawn) [Compound 22, 7-(2-(dimethylamino)pyrimidin-5-yl)-2,4-dimethyl-2-(trans-4-(methyl(2,2,2-trifluoroethyl)amino)cyclohexyl)-N-((6-methyl-4-(methylthio)-2-oxo-1,2-dihydropyridin-3-yl)methyl)benzo[d][1,3]dioxole-5-carboxamide] belongs at most 10 nM; to `COCCN(C)[C@H]1CC[C@H](C2(C)Oc3c(-c4ccc(N5C[C@@H](C)O[C@@H](C)C5)nc4)cc(C(=O)NCc4c(SC)cc(C)[nH]c4=O)c(C)c3O2)CC1` (stereo partly drawn) [Compound 24, 7-(6-((2S,6R)-2,6-dimethylmorpholino)pyridin-3-yl)-2-(trans-4-((2-methoxyethyl)(methyl)amino)cyclohexyl)-2,4-dimethyl-N-((6-methyl-4-(methylthio)-2-oxo-1,2-dihydropyridin-3-yl)methyl)benzo[d][1,3]dioxole-5-carboxamide], at most 10 nM. The same measure, in the same setting: to `COCCN(C)[C@H]1CC[C@H](C2(C)Oc3c(-c4cnc(N5C[C@@H](C)O[C@@H](C)C5)nc4)cc(C(=O)NCc4c(SC)cc(C)[nH]c4=O)c(C)c3O2)CC1` (stereo partly drawn) [Compound 25, 7-(2-((2S,6R)-2,6-dimethylmorpholino)pyrimidin-5-yl)-2-(trans-4-((2-methoxyethyl)(methyl)amino)cyclohexyl)-2,4-dimethyl-N-((6-methyl-4-(methylthio)-2-oxo-1,2-dihydropyridin-3-yl)methyl)benzo[d][1,3]dioxole-5-carboxamide] belongs at most 10 nM; to `COCCN(C)[C@H]1CC[C@H](C2(C)Oc3c(-c4cnc(N(C)C)nc4)cc(C(=O)NCc4c(SC)cc(C)[nH]c4=O)c(C)c3O2)CC1` (stereo partly drawn) [Compound 26, 7-(2-(dimethylamino)pyrimidin-5-yl)-2-(trans-4-((2-methoxyethyl)(methyl)amino)cyclohexyl)-2,4-dimethyl-N-((6-methyl-4-(methylthio)-2-oxo-1,2-dihydropyridin-3-yl)methyl)benzo[d][1,3]dioxole-5-carboxamide], at most 10 nM; to `COCCN(C)[C@H]1CC[C@H](C2(C)Oc3c(-c4ccc(N5CCC(F)(F)CC5)nc4)cc(C(=O)NCc4c(SC)cc(C)[nH]c4=O)c(C)c3O2)CC1` (stereo partly drawn) [Compound 27, 7-(6-(4,4-difluoropiperidin-1-yl)pyridin-3-yl)-2-(trans-4-((2-methoxyethyl)(methyl)amino)cyclohexyl)-2,4-dimethyl-N-((6-methyl-4-(methylthio)-2-oxo-1,2-dihydropyridin-3-yl)methyl)benzo[d][1,3]dioxole-5-carboxamide], at most 10 nM. In the case of `COCCN(C)[C@H]1CC[C@H](C2(C)Oc3c(-c4ccc(OC)nc4)cc(C(=O)NCc4c(SC)cc(C)[nH]c4=O)c(C)c3O2)CC1` (stereo partly drawn) [Compound 28, 2-(trans-4-((2-methoxyethyl)(methyl)amino)cyclohexyl)-7-(6-methoxypyridin-3-yl)-2,4-dimethyl-N-((6-methyl-4-(methylthio)-2-oxo-1,2-dihydropyridin-3-yl)methyl)benzo[d][1,3]dioxole-5-carboxamide], the IC50 was at most 10 nM.

As to `CSc1cc(C)[nH]c(=O)c1CNC(=O)c1cc(-c2ccc(N3C[C@@H](C)O[C@@H](C)C3)nc2)c2c(c1C)OC(C)([C@H]1CC[C@H](N(C)C[C@H](C)O)CC1)O2` (stereo partly drawn) [Compound 29, 7-(6-((2S,6R)-2,6-dimethylmorpholino)pyridin-3-yl)-2-(trans-4-(((S)-2-hydroxypropyl)(methyl)amino)cyclohexyl)-2,4-dimethyl-N-((6-methyl-4-(methylthio)-2-oxo-1,2-dihydropyridin-3-yl)methyl)benzo[d][1,3]dioxole-5-carboxamide], the IC50 was at most 10 nM. `CCCOCCN(C)[C@H]1CC[C@H](C2(C)Oc3c(-c4ccc(N5C[C@@H](C)O[C@@H](C)C5)nc4)cc(C(=O)NCc4c(SC)cc(C)[nH]c4=O)c(C)c3O2)CC1` (stereo partly drawn) [Compound 30, 7-(6-((2S,6R)-2,6-dimethylmorpholino)pyridin-3-yl)-2,4-dimethyl-2-(trans-4-(methyl(2-propoxyethyl)amino)cyclohexyl)-N-((6-methyl-4-(methylthio)-2-oxo-1,2-dihydropyridin-3-yl)methyl)benzo[d][1,3]dioxole-5-carboxamide]: the IC50 was at most 10 nM.

For the molecule `COC(CN(C)[C@H]1CC[C@H](C2(C)Oc3c(-c4ccc(N5C[C@@H](C)O[C@@H](C)C5)nc4)cc(C(=O)NCc4c(SC)cc(C)[nH]c4=O)c(C)c3O2)CC1)OC` (stereo partly drawn) [Compound 31, 2-(trans-4-((2,2-dimethoxyethyl)(methyl)amino)cyclohexyl)-7-(6-((2S,6R)-2,6-dimethylmorpholino)pyridin-3-yl)-2,4-dimethyl-N-((6-methyl-4-(methylthio)-2-oxo-1,2-dihydropyridin-3-yl)methyl)benzo[d][1,3]dioxole-5-carboxamide], the IC50 was at most 10 nM.

For `CSc1cc(C)[nH]c(=O)c1CNC(=O)c1cc(-c2ccc(N3C[C@@H](C)O[C@@H](C)C3)nc2)c2c(c1C)OC(C)([C@H]1CC[C@H](N(C)CC3OCCO3)CC1)O2` (stereo partly drawn) [Compound 32, 2-(trans-4-(((1,3-dioxolan-2-yl)methyl)(methyl)amino)cyclohexyl)-7-(6-((2S,6R)-2,6-dimethylmorpholino)pyridin-3-yl)-2,4-dimethyl-N-((6-methyl-4-(methylthio)-2-oxo-1,2-dihydropyridin-3-yl)methyl)benzo[d][1,3]dioxole-5-carboxamide], the IC50 is at most 10 nM. On the same count and under the same terms, to `CSc1cc(C)[nH]c(=O)c1CNC(=O)c1cc(-c2ccc(N3C[C@@H](C)O[C@@H](C)C3)nc2)c2c(c1C)OC(C)(C1CCN(CC(F)(F)F)CC1)O2` (stereo partly drawn) [Compound 33, 7-(6-((2S,6R)-2,6-dimethylmorpholino)pyridin-3-yl)-2,4-dimethyl-N-((6-methyl-4-(methylthio)-2-oxo-1,2-dihydropyridin-3-yl)methyl)-2-(1-(2,2,2-trifluoroethyl)piperidin-4-yl)benzo[d][1,3]dioxole-5-carboxamide] belongs at most 10 nM; to `CSc1cc(C)[nH]c(=O)c1CNC(=O)c1cc(-c2ccc(N3CCSCC3)nc2)c2c(c1C)OC(C)(C1CCN(CC(F)(F)F)CC1)O2` (stereo not shown) [Compound 34, 2,4-dimethyl-N-((6-methyl-4-(methylthio)-2-oxo-1,2-dihydropyridin-3-yl)methyl)-7-(6-thiomorpholinopyridin-3-yl)-2-(1-(2,2,2-trifluoroethyl)piperidin-4-yl)benzo[d][1,3]dioxole-5-carboxamide], at most 10 nM. On to `CSc1cc(C)[nH]c(=O)c1CNC(=O)c1cc(-c2cnc(N(C)C)nc2)c2c(c1C)OC(C)(C1CCN(CC(F)(F)F)CC1)O2` (stereo not shown) [Compound 35, 7-(2-(dimethylamino)pyrimidin-5-yl)-2,4-dimethyl-N-((6-methyl-4-(methylthio)-2-oxo-1,2-dihydropyridin-3-yl)methyl)-2-(1-(2,2,2-trifluoroethyl)piperidin-4-yl)benzo[d][1,3]dioxole-5-carboxamide], for which the IC50 was at most 10 nM. Still for that read-out and setting: to `COc1ccc(-c2cc(C(=O)NCc3c(SC)cc(C)[nH]c3=O)c(C)c3c2OC(C)(C2CCN(CC(F)(F)F)CC2)O3)cn1` (stereo not shown) [Compound 36, 7-(6-methoxypyridin-3-yl)-2,4-dimethyl-N-((6-methyl-4-(methylthio)-2-oxo-1,2-dihydropyridin-3-yl)methyl)-2-(1-(2,2,2-trifluoroethyl)piperidin-4-yl)benzo[d][1,3]dioxole-5-carboxamide] belongs at most 10 nM.
